In patent US20080233561A1, “Method for Measuring Cytopathic Effect Due to Viral Infection in Cells Using Electric Cell-Substrate Impedance Sensing” (UNIVERSITY OF LOUISVILLE RESEARCH FOUNDATION, INC., priority 2005, published 2008):

Tested on: PR8 influenza A virus (influenza/A/PR/8/34 virus)
Type: cell-based
Settings: MDCK cells pretreated 1 hour with 20 mM NH4Cl and kept under NH4Cl; […]; approximately 48 hours PI; 4,000 Hz; listed as ammonium chloride (NH4Cl)

Compound: Cl.N [NH4Cl, ammonium chloride]
- signal resistance (ECIS) of the cell monolayer following influenza inoculation: the reduction in signal resistance due to influenza infection is abolished
